Experiments:
[1] = biological target: T1, βarr2 recruitment to agonist-activated β2V2R (Homo sapiens, UniProt P32121); experiment: DiscoveRx PathHunter β-arrestin recruitment assay in U2OS cells; type: cell-based; details: series of compound concentrations, 30 min pretreatment, isoproterenol dose-response
T1 construct: host or cells: U2OS
Experimental: β-arrestin recruitment to the agonist-activated receptor (02V2R) was measured using the DiscoveRx PathHunter β-arrestin assay (Ahn, S. et al. Allosteric “beta-blocker” isolated from a DNA-encoded small molecule library. Proc Natl Acad Sci U SA 114, 1708-1713, doi:10.1073/pnas.1620645114 (2017)). […] Agonist-stimulated recruitment of βarr2 to the receptor results in the formation of functionally active β-gal enzyme. Addition of substrate generates a chemiluminescence signal directly correlated to the extent of recruitment. U2OS cells co-expressing β2V2R and βarr2 were plated in 96-well clear-bottomed plates at a density of 25,000 cells per well (80 μL per well), 24 hours prior to compound treatment. On the day of experiment, cells were first treated with compound or vehicle for 30 min, followed by agonist (Iso) stimulation for 60 min at 37° C. Cells were then treated with PathHunter™ detection reagents for 90 min at 37° C., and luminescence signals were measured using a CLARIOstar microplate reader (BMG Labtech Inc., Cary, N.C.).

[2] = biological target: βarr2 (Rattus norvegicus, UniProt P29067); experiment: Negative-stain electron microscopy, 2D class averages of βarr2; parameters: final βarr2 (truncated βarr2 at 394) concentration of ˜1 mg/mL; made in house; details: control βarr 97% monomeric
Experimental: To prepare for EM visualization of the architecture and structural organization of βarr2-Cmpd30 complexes, purified βarr2 (394) was diluted to 0.5 μM and incubated with 5 μM Cmpd-30 or vehicle (DMSO) in HN buffer (20 mM HEPES pH 7.4 and 150 mM NaCl) for 7 min at room temperature followed by dilution 10× into HN buffer containing 1 μM Cmpd-30, before negative staining. The positive control, βarr2 bound to IP6 sample was prepared similarly (5 μM and 250 μM, respectively) and was diluted 100× into HN buffer containing 10 μM IP6. Grids were prepared using conventional negative-staining protocols as described previously (Peisley, A. & Skiniotis, G. 2D Projection Analysis of GPCR Complexes by Negative Stain Electron Microscopy. Methods Mol Biol 1335, 29-38, doi:10.1007/978-1-4939-2914-6_3 (2015). Briefly, 3 μL of samples were applied onto a glow-discharged EM carbon-coated copper grid, adsorbed on the grid surface, blotted, stained, and air dried before imaging. EM grids were examined with a FEI Tecnai G2 Twin electron microscope and operated at an acceleration voltage of 120 kV. Images were recorded with an Eagle 2K CCD camera at a magnification of ×65,200 and a defocus value of ˜1.5 μm. Two-dimensional EM reference-free alignment and classification of particle projections were performed with the iterative stable alignment and clustering procedure (ISAC)(Yang, Z., et al., Iterative stable alignment and clustering of 2D transmission electron microscope images. Structure 20, 237-247, doi:10.1016/j.str.2011.12.007 (2012)). EM single particles were both automatically and manually selected using Boxer (part of the EMAN 2.1 software suite)(Tang, G. et EMAN2: an extensible image processing suite for electron microscopy. J Struct Biol 157, 38-46, doi:10.1016/j.jsb.2006.05.009 (2007)). A total of ˜250,000 0° particles projections were picked representing all the three βarr2 samples (with vehicle, Cmpd-30 or IP6) and windowed into 96×96-pixel images (with the RELION 2.1-beta-1 software package) and subjected to ISAC. […]

βarr2, sequence (P29067 1-394): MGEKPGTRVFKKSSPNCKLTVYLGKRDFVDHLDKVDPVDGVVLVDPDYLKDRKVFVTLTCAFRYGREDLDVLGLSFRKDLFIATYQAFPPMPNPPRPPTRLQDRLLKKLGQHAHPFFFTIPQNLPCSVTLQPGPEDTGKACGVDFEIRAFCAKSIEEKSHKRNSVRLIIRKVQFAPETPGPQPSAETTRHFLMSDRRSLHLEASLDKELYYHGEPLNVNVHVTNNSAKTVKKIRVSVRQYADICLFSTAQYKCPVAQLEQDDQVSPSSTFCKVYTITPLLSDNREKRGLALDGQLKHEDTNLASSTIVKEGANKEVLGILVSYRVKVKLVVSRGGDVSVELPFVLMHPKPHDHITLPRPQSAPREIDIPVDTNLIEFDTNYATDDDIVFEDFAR
T1 sequence (P32121 whole entry): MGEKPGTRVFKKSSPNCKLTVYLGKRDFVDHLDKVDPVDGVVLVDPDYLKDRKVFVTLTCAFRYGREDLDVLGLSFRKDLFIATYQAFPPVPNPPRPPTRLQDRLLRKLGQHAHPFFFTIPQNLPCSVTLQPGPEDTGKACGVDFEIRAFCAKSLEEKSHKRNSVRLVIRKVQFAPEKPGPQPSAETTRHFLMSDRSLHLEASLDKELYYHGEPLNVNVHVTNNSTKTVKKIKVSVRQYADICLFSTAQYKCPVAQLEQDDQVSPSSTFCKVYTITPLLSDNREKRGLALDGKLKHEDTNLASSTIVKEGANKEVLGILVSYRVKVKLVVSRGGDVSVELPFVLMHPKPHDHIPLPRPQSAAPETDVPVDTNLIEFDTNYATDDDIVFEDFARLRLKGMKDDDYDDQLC

| SMILES | maximal agonist induced βarr recruitment response [1] | class averages represented as homo-oligomers (dimers/trimers) [2] |
| --- | --- | --- |
| COc1cc(Cc2nccc3cc(OC)c(OC)cc23)c(C(C)=O)cc1OC [C29, 1-[2-[(6,7-dimethoxyisoquinolin-1-yl)methyl]-4,5-dimethoxyphenyl]ethanone] | significantly diminished |  |
| O=P(O)(O)OC1C(OP(=O)(O)O)C(OP(=O)(O)O)C(OP(=O)(O)O)C(OP(=O)(O)O)C1OP(=O)(O)O (centres unmarked) [IP6, inositol hexakisphosphate, reference compound] |  | 100% |

From patent US20220315574A1, “Beta-Arrestin-Modulating Compounds and Methods of Using Same” (Duke University, priority 2019, published 2022)
